Assay results published in the NIST ThermoML archive (doi:10.1021/je800026p).
Numbers after ± are expanded uncertainties.

Assay: xn = mol fraction of the nth substance listed
Conditions: 101 kPa, Liquid; for speed of sound: Sing-around technique in a fixed-path interferometer; for mass density: Vibrating tube method

CCCCCCOCCOCCO [2-(2-hexyloxyethoxy)ethanol] + CCCCN
Conditions | mass density, 288.15 K [kg/m3] | mass density, 293.15 K [kg/m3] | mass density, 298.15 K [kg/m3] | mass density, 303.15 K [kg/m3] | mass density, 308.15 K [kg/m3] | speed of sound, 288.15 K [m/s] | speed of sound, 293.15 K [m/s] | speed of sound, 298.15 K [m/s] | speed of sound, 303.15 K [m/s] | speed of sound, 308.15 K [m/s]
x1 = 0.1165 | 788.964 ± 0.62 | 784.34 ± 0.62 | 779.774 ± 0.61 | 775.186 ± 0.61 | 770.602 ± 0.6 | 1323 ± 2.1 | 1302.2 ± 2.1 | 1281.5 ± 2.1 | 1260.8 ± 2.1 | 1240.3 ± 2.1
x1 = 0.1587 | 803.568 ± 0.63 | 799.044 ± 0.63 | 794.52 ± 0.62 | 790 ± 0.62 | 785.486 ± 0.62 | 1332.3 ± 2.1 | 1312 ± 2.1 | 1291.7 ± 2.1 | 1271.5 ± 2.1 | 1251.3 ± 2.1
x1 = 0.1943 | 814.988 ± 0.64 | 810.552 ± 0.64 | 806.078 ± 0.64 | 801.606 ± 0.63 | 797.118 ± 0.63 | 1339.5 ± 2.1 | 1319.7 ± 2.1 | 1299.7 ± 2.1 | 1279.8 ± 2.1 | 1259.8 ± 2.1
x1 = 0.2403 | 828.571 ± 0.66 | 824.179 ± 0.65 | 819.765 ± 0.65 | 815.333 ± 0.64 | 810.88 ± 0.64 | 1348.2 ± 2.1 | 1328.7 ± 2.1 | 1309.1 ± 2.1 | 1289.6 ± 2.1 | 1270 ± 2.1
x1 = 0.2974 | 843.631 ± 0.67 | 839.297 ± 0.67 | 834.939 ± 0.66 | 830.566 ± 0.66 | 826.173 ± 0.65 | 1357.8 ± 2.1 | 1338.8 ± 2.1 | 1319.6 ± 2.1 | 1300.6 ± 2.1 | 1281.3 ± 2.1
x1 = 0.3403 | 853.769 ± 0.68 | 849.458 ± 0.67 | 845.129 ± 0.67 | 840.783 ± 0.67 | 836.421 ± 0.66 | 1364.2 ± 2.1 | 1345.5 ± 2.1 | 1326.6 ± 2.1 | 1307.9 ± 2.1 | 1288.9 ± 2.1
x1 = 0.3916 | 864.666 ± 0.69 | 860.386 ± 0.69 | 856.092 ± 0.68 | 851.78 ± 0.68 | 847.457 ± 0.67 | 1371.1 ± 2.1 | 1352.6 ± 2.1 | 1334.1 ± 2.1 | 1315.7 ± 2.1 | 1297.1 ± 2.1
x1 = 0.4568 | 876.866 ± 0.7 | 872.668 ± 0.7 | 868.407 ± 0.69 | 864.132 ± 0.69 | 859.843 ± 0.68 | 1378.6 ± 2.1 | 1360.4 ± 2.1 | 1342.2 ± 2.1 | 1324.2 ± 2.1 | 1306 ± 2.1
x1 = 0.5105 | 885.772 ± 0.71 | 881.607 ± 0.71 | 877.388 ± 0.7 | 873.158 ± 0.7 | 868.903 ± 0.69 | 1383.9 ± 2.1 | 1365.9 ± 2.1 | 1348 ± 2.1 | 1330.1 ± 2.1 | 1312.3 ± 2.1
x1 = 0.5658 | 894.125 ± 0.72 | 889.991 ± 0.71 | 885.768 ± 0.71 | 881.571 ± 0.71 | 877.355 ± 0.7 | 1388.5 ± 2.1 | 1370.7 ± 2.1 | 1353 ± 2.1 | 1335.3 ± 2.1 | 1317.8 ± 2.1
x1 = 0.6081 | 900.031 ± 0.72 | 895.896 ± 0.72 | 891.728 ± 0.72 | 887.547 ± 0.71 | 883.355 ± 0.71 | 1391.5 ± 2.1 | 1373.9 ± 2.1 | 1356.3 ± 2.1 | 1338.8 ± 2.1 | 1321.2 ± 2.1
x1 = 0.6559 | 906.287 ± 0.73 | 902.162 ± 0.73 | 898.025 ± 0.72 | 893.876 ± 0.72 | 889.716 ± 0.71 | 1394.5 ± 2.1 | 1376.9 ± 2.1 | 1359.5 ± 2.1 | 1342.1 ± 2.1 | 1324.9 ± 2.1
x1 = 0.6977 | 911.396 ± 0.74 | 907.303 ± 0.73 | 903.194 ± 0.73 | 899.074 ± 0.72 | 894.942 ± 0.72 | 1396.7 ± 2.1 | 1379.2 ± 2.1 | 1361.8 ± 2.1 | 1344.5 ± 2.1 | 1327.5 ± 2.1
x1 = 0.7402 | 916.322 ± 0.74 | 912.248 ± 0.74 | 908.162 ± 0.73 | 904.067 ± 0.73 | 899.964 ± 0.72 | 1398.6 ± 2.1 | 1381.2 ± 2.1 | 1363.9 ± 2.1 | 1346.7 ± 2.1 | 1329.8 ± 2.1
x1 = 0.8029 | 923 ± 0.75 | 918.949 ± 0.74 | 914.893 ± 0.74 | 910.805 ± 0.74 | 906.755 ± 0.73 | 1400.8 ± 2.1 | 1383.5 ± 2.1 | 1366.4 ± 2.1 | 1349.3 ± 2.1 | 1332.5 ± 2.1
x1 = 0.8675 | 928.954 ± 0.76 | 924.929 ± 0.75 | 920.91 ± 0.75 | 916.89 ± 0.74 | 912.833 ± 0.74 | 1402.5 ± 2.1 | 1385.4 ± 2.1 | 1368.3 ± 2.1 | 1351.4 ± 2.1 | 1334.6 ± 2.1
x1 = 0.9082 | 932.126 ± 0.76 | 928.121 ± 0.76 | 924.113 ± 0.75 | 920.095 ± 0.75 | 916.07 ± 0.74 | 1403.4 ± 2.1 | 1386.3 ± 2.1 | 1369.3 ± 2.1 | 1352.4 ± 2.1 | 1335.7 ± 2.1
x1 = 0.9635 | 935.472 ± 0.76 | 931.477 ± 0.76 | 927.494 ± 0.75 | 923.492 ± 0.75 | 919.484 ± 0.74 | 1404.3 ± 2.1 | 1387.4 ± 2.1 | 1370.4 ± 2.1 | 1353.6 ± 2.1 | 1336.8 ± 2.1
